Key:
[1] = in vivo
[2] = thermal stability at melt-extrusion temperatures; type: physicochemical; settings: temperatures up to 300°C
Experimental: One of the most important parameters of melt extrusion is the temperature at which the melt-extruder is operating. […] At temperatures lower than 120°C, loviride will not dissolve sufficiently in most water-soluble polymers and the extrudate will not have the required bioavailability. In addition, the process is difficult because of the high viscosity of the mixture. At temperatures of more than 300°C the water-soluble polymer may decompose to an unacceptable level.

solubility in water = type: physicochemical; settings: room temperature, pH of 6.5, racemic free base
[3] = parameters: AUClast: dose or concentration left out as unconfirmed; settings: for Cmax: human, in vivo, po, 100 mg
Experimental: In this study 12 healthy volunteers in fasting conditions were administered a tablet of example 1 (100 mg loviride). Plasma levels of each of the loviride enantiomers were determined and the following bioavailability data were calculated therefrom.

SMILES	half-life [1]	thermal stability [2]	solubility (solubility in water)	AUClast [3]	Cmax [3]
CC(=O)c1ccc(C)cc1NC(C(N)=O)c1c(Cl)cccc1Cl (racemic) [loviride, (±)-α-[(2-acetyl-5-methylphenyl)amino]-2,6-dichlorobenzeneacetamide]	short	thermally very stable	less than 0.1 mg/100ml	–	–
CC(=O)c1ccc(C)cc1NC(C(N)=O)c1c(Cl)cccc1Cl (single isomer, unassigned; (-)) [(-)-loviride]	–	–	–	1,347 ± 512 ng.h/ml	155 ± 66 ng/mL
CC(=O)c1ccc(C)cc1NC(C(N)=O)c1c(Cl)cccc1Cl (single isomer, unassigned; (+)) [(+)-loviride]	–	–	–	18,180 ± 7,197 ng.h/ml	890 ± 292 ng/mL
